Test results published in US6372919B1 (DOV Pharmaceutical, Inc., priority 2001, dated 2002).

How the values were obtained:
[1] = molecular target: norepinephrine uptake site (norepinephrine transporter), rat forebrain membranes (Rattus norvegicus, UniProt Q9WTR4); conditions: comparison of Table 1 Ki values
Protocol: Reactions were carried out in 50 mM TRIS-HCl (pH 7.4), containing 300 mM NaCl and 5 mM KCl at 0° C. to 4 ° C for 4 hours. The reaction was terminated by rapid vacuum filtration onto glass fiber filters. Radioactivity trapped in the filters was determined and compared to control values in order to ascertain the interactions of the test compound with the norepinephrine uptake site.

[2] = molecular target: T1, serotonin transporter binding site, rat forebrain membranes (Rattus norvegicus, UniProt P31652); test: Serotonin Transporter Binding Assay ([3H]-citalopram); conditions: comparison of Table 2 Ki values
T1 construct: The receptor source was rat forebrain membranes; from tissue; host or cells: rat forebrain membranes
Protocol: Reactions were carried out in 50 mM TRIS-HCl (pH 7.4) containing 120 mM NaCl and 5 mM KCl at 25° C. for 60 minutes. The reaction was terminated by rapid vacuum filtration onto glass fiber filters. Radioactivity trapped in the filters was determined using liquid scintillation spectrometry and compared to control values in order to ascertain any interactions of test compound with the serotonin transporter binding site.

Chain of norepinephrine uptake site (norepinephrine transporter), rat forebrain membranes (Q9WTR4 1-597): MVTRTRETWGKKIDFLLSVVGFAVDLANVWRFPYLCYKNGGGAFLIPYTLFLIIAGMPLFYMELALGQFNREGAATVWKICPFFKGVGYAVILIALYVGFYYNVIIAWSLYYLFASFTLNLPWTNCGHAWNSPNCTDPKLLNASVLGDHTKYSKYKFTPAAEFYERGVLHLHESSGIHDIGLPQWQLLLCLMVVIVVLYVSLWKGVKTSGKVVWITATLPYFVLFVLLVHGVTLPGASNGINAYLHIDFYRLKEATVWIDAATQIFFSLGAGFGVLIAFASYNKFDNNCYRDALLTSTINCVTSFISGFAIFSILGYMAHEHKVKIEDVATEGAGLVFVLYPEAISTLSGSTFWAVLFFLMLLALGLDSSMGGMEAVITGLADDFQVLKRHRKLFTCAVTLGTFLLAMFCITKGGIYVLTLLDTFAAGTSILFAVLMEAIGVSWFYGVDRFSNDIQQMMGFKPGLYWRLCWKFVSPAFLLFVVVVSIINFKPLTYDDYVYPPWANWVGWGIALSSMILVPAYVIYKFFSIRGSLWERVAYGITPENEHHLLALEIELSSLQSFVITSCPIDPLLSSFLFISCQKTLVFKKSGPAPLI
T1 sequence (P31652 whole entry): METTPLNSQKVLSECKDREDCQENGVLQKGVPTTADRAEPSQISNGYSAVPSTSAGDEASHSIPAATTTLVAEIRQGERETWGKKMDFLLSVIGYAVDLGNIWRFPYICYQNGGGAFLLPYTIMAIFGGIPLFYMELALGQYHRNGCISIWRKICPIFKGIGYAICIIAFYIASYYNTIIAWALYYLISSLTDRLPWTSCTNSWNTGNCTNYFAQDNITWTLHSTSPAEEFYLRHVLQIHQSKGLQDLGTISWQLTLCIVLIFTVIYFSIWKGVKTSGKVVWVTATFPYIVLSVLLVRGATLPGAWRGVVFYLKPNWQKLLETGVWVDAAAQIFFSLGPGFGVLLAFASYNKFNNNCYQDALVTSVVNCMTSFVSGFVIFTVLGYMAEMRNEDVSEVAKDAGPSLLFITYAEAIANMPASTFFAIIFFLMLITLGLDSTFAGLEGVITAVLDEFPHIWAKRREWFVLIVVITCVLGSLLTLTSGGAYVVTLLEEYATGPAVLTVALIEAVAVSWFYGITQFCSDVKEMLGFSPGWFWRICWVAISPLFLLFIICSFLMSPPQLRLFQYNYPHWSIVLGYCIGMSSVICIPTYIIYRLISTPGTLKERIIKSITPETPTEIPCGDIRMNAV

SMILES: Cl.Clc1ccc([C@@]23CNC[C@@H]2C3)cc1Cl (single isomer, unassigned) [(+)-1-(3,4-dichlorophenyl)-3-azabicyclo[3.1.0]hexane hydrochloride]
- affinity for the norepinephrine uptake site compared with (±)-1-(3,4-dichlorophenyl)-3-azabicyclo[3.1.0]hexane HCl [1]: significantly greater affinity
- affinity for the serotonin uptake site compared with (±)-1-(3,4-dichlorophenyl)-3-azabicyclo[3.1.0]hexane HCl [2]: significantly greater affinity
